These results are taken from publication PMC11532494 (Nature Communications, 2024).

“And” between values parts separate entries of the source, which are not always exact repeats. Equal entries are not always repeated. Where two headings read alike, the source gives them in different places.

Assay [1] deals with T1, RwDmhA (1b) (Rhizorhabdus wittichii, UniProt A0A067XIQ6). The assay is described as follows: biochemical. The conditions noted are these: for remaining activity at 1 µM: inhibitor 1 µM.
Assay [2] concerns the target T1, RwDmhA (1b). Kind of assay: biochemical. The following applies: for IC50: 30 nM enzyme, 60 min, 37 °C.
For another assay, the target named is LpApaH (3) (Legionella pneumophila, UniProt A0A2S6EWV0). Kind of assay: biochemical.
The next assay concerns VcHdaH (5b). The conditions noted are these: VcHdaH (5b)+TSA control; for RFU: 20 nM enzyme, 37 °C, single replicates; for RFU, mean: mean of n = 3.
Another assay addresses LcApaH (3) (Legionella cherrii, UniProt A0A0W0SGS1). Kind of assay: biochemical. The conditions noted are these: for IC50: 0.5 nM enzyme, 30 min, 37 °C.
In another assay the target is (UniProt A0A2N0XRJ0). The assay is described as follows: biochemical. Also on record: species or system Vibrio sp. The following applies: for IC50: 60 µM QPKKac, 1.5 nM enzyme, 60 min, 37 °C.
For assay [3], the target named is T2, KpHdaH (1b) (Klebsiella pneumoniae, UniProt A0A377Z5F6). The assay is described as follows: biochemical. The following applies: for IC50: 15 nM enzyme, 60 min, 37 °C.
Assay [4] addresses T3, BsAcuC (2c) (Bacillus subtilis, UniProt P39067).
T3 construct: made in house; host or cells: E. coli BL21 (DE3)
T3 sequence (P39067 1-387): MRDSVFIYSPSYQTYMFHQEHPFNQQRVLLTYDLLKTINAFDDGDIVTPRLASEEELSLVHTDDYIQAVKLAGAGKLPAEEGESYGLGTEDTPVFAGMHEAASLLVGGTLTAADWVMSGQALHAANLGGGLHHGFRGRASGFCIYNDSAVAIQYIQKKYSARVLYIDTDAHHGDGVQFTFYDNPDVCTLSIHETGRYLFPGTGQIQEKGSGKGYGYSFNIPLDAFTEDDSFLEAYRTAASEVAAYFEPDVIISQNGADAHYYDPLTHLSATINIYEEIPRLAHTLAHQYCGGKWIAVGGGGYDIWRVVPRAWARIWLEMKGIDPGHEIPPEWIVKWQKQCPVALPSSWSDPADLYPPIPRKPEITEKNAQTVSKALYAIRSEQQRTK
Kind of assay: Inhibitor screening assay (10 µM or 1 µM). The class given is biochemical. The following applies: pre-screening at 10 µM or 1 µM inhibitor. An excerpt:
Data was transformed to relative enzyme activity (%) compared to control wells without inhibitors.

For another assay, the target named is PsApaH (4) (Pseudomonas sp. M30-35, UniProt A0A1Y0KY79). Kind of assay: biochemical.
Assay [5] deals with T3, BsAcuC (2c). Kind of assay: Dose-response inhibition assay. The class given is biochemical. The conditions noted are these: 40 µM LGKac; for IC50: 200 nM enzyme, 30 min, 37 °C. An excerpt:
Data was transformed to relative enzyme activity (%) compared to control wells without inhibitor, and fitted to sigmoidal functions with variable slope (Eqs. 3, 4 parameters, h: Hill slope) to afford IC50 values. Assuming fast-on/fast-off competitive inhibition, the Cheng–Prusoff equation (Eq. 4) was employed to transform IC50 data into inhibitory constants (Ki), with KM values as determined previously.3 Res.activity=Res.activitybottom+Res.activitytop−Res.activitybottom/1+10^(logIC50−logI)h 4 Ki=IC50/1+[S]/KM

Assay [6] has as its target T2, KpHdaH (1b). The assay is described as follows: biochemical. The conditions noted are these: for remaining activity at 1 µM: inhibitor 1 µM; for remaining activity at 10 µM: inhibitor 10 µM.
The next assay concerns HsHDAC11 (5f). The conditions noted are these: cited from earlier work.
The next assay concerns D20-37KpHdaH. The class given is biochemical, Klebsiella pneumoniae. The conditions noted are these: substrate with D20-37KpHdaH (L1-loop deletion).
A further assay has as its target BsAcuC (Bacillus subtilis, UniProt P39067). The class given is biochemical. The conditions noted are these: substrate with BsAcuC.
The next assay deals with KpHdaH H144A. The class given is biochemical, Klebsiella pneumoniae.
Where [7] appears, read: Log[IC50(M)], decadic log of IC50, 60 µM QPKKac.
Where [8] appears, read: decadic log of IC50, read-out: Log[IC50(M)] (converted).

In general, remaining activity refers to the signal under treatment as a percentage of the control signal. What is called Ki is a dissociation constant, usually derived from enzyme kinetics or from competition with a known ligand. What is called IC50 is the midpoint of a concentration-inhibition curve. Turning to `CC(/C=C/C(=O)NO)=C\[C@@H](C)C(=O)c1ccc(N(C)C)cc1` [TSA, trichostatin A], the remaining activity at 1 µM at RwDmhA (1b) [1] (individual replicates) was determined as 45.9%; at RwDmhA (1b) [1] (mean) it was 45.5%; at KpHdaH (1b) [6] (individual replicates), 2.1%; at KpHdaH (1b) [6] (mean), 2.15%. The remaining activity at 10 µM on RwDmhA (1b) [1] (inhibitor 10 µM, mean) is 7.3%; on KpHdaH (1b) [6] (individual replicates), -0.2%; on KpHdaH (1b) [6] (mean) it was -0.2%. Further, the Ki on RwDmhA (1b) [2] is 356 nM; at LpApaH (3) (Ki), 2.47 nM; at LcApaH (3) (Ki, calculated using the Cheng–Prusoff equation, 40 µM LGKac), 3.95 nM; at (UniProt A0A2N0XRJ0) it was 11.1 nM; at KpHdaH (1b) [3] (Ki, calculated using the Cheng–Prusoff equation, 60 µM QPKKac), no more than 2.47 nM; at PsApaH (4), no more than 7.56 nM. On BsAcuC (2c) [5] (calculated using the Cheng–Prusoff equation), the Ki was 400 nM. The IC50 is 8.65e-07 M against RwDmhA (1b) [2] (IC50, 60 µM QPKKac); 8.71e-07 M against RwDmhA (1b) [2] (setting [7]); 7.17e-09 M against LpApaH (3) (IC50); 7.94e-09 M against LpApaH (3) (Log[IC50(M)]); 1.04e-08 M on LcApaH (3) (IC50, 40 µM LGKac); 1.05e-08 M on LcApaH (3) (Log[IC50(M)], decadic log of IC50, 40 µM LGKac). For the same molecule, the IC50 was 2.54e-08 M at (UniProt A0A2N0XRJ0) (read-out: IC50); 2.51e-08 M at (UniProt A0A2N0XRJ0) (setting [8]); no more than 1.07e-08 M at KpHdaH (1b) [3] (IC50, 60 µM QPKKac); no more than 1.07e-08 M against KpHdaH (1b) [3] (setting [7]); no more than 18.1 nM against PsApaH (4); 5.93e-07 M at BsAcuC (2c) [5] (read-out: IC50). Moreover, the IC50 on BsAcuC (2c) [5] (setting [8]) is 6.31e-07 M. Moreover, the RFU in the assay with VcHdaH (5b) (10 µM peptide 2 (S2), 45 min) is 14 RFU and 2 RFU and 59 RFU; in the assay with VcHdaH (5b) (10 µM peptide 2a (S2a), 30 min), -513 RFU and -208 RFU and -504 RFU; in the assay with VcHdaH (5b) (20 µM Boc-Lys(Ac)-AMC, 30 min), 8 RFU and -7 RFU and -73 RFU. In addition, the “RFU, mean” value with VcHdaH (5b) (10 µM peptide 2 (S2)) is given as 25 RFU; with VcHdaH (5b) (10 µM peptide 2a (S2a)) it was -408 RFU; in the assay on VcHdaH (5b) (20 µM Boc-Lys(Ac)-AMC), -24 RFU. In addition, the “inhibition of BsAcuC (2c) in the initial screen, in words” value against BsAcuC (2c) [4] is listed as “only weakly inhibited”. Also, the “inhibition of HsHDAC11 (5f), in words” value with HsHDAC11 (5f) was “only weakly inhibited”.
For the molecule `CC(=O)NCCCC[C@H](NC(=O)OC(C)(C)C)C(=O)Nc1ccc2c(C)cc(=O)oc2c1` [Boc-Lys(Ac)-AMC], the AMC fluorescence was 1597 a.u with D20-37KpHdaH, 768 a.u on BsAcuC, 2059 a.u with KpHdaH H144A (substrate with KpHdaH H144A (first of two columns with this head)) and 31 a.u with KpHdaH H144A (substrate with KpHdaH H144A (second of two columns with this head)).
